The target of assay [1] is T1, human LXRβ (Homo sapiens, UniProt P55055).
T1 construct: biotin (biotinylated); made in house; host or cells: E. coli (crude extract)
T1 sequence (P55055 1-460): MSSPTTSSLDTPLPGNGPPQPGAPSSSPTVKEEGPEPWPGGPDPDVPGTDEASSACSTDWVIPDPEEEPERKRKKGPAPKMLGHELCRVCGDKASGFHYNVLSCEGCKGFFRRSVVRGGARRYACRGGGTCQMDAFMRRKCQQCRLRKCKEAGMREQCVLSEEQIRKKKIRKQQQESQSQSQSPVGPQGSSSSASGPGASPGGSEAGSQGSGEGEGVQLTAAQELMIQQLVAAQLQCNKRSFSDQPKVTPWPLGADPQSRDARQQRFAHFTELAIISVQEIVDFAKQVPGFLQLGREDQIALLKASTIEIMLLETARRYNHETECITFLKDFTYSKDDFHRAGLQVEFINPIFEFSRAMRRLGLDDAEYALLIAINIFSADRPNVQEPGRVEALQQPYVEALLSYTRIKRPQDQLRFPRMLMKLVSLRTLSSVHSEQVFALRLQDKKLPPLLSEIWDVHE
Nature of the assay: Ligand-binding test procedure for human LXRβ (3H T0901317 tracer, flash plates). The procedure:
Receptor source: E. coli extracted from cells expressing biotinylated hLXRβ. Extract was made in a similar buffer as above, but with 50 mM TRIS.
Washed streptavidin and coated flash plates with wash buffer. Diluted receptor extract to give Bmax ˜4000 cpm and add to the wells. Wrapped the plates in aluminum foil and stored them at +4° C. overnight.
(§1) Made a dilution series in DMSO of the test ligands. Made a 5 nM solution of the radioactive tracer in buffer. Mixed 250 μl diluted tracer with 5 μl of the test ligand from each concentration of the dilution series. Washed the receptor-coated flash plates. Added 200 μl per well of the ligand/radiolabel mixture to the receptor-coated flash plates. Wrapped the plates in aluminum foil and incubate at +4° C. over night.
Aspirated wells, and washed the flashed plates. Sealed the plate. Measured the remaining radioactivity in the plate.

Assay [2] deals with T2, human LXRα (Homo sapiens, UniProt Q13133).
T2 construct: biotin (biotinylated); made in house; host or cells: E. coli (crude extract)
T2 sequence (Q13133 1-447): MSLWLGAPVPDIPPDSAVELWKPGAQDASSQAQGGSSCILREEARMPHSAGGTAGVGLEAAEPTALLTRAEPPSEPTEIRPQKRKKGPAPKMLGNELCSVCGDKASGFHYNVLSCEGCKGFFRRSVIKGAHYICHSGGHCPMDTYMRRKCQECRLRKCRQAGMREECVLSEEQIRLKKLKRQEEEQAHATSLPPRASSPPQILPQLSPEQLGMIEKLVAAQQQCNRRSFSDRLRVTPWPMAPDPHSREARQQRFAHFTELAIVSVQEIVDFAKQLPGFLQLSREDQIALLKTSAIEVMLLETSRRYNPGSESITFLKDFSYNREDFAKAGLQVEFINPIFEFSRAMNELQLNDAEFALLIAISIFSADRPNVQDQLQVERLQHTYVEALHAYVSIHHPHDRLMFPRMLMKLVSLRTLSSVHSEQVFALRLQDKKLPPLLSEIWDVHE
Description: Ligand-binding test procedure for human LXRα (3H T0901317 tracer, flash plates). As to conditions: biotinylated hLXRα, tracer 3H T0901317. The procedure:
Receptor source: E. coli extract from cells expressing biotinylated hLXRcc. Extract was made in a similar buffer as above, but with 50 mM TRIS.
Washed streptavidin and coated flash plates with wash buffer. Diluted receptor extract to give Bmax ˜4000 cpm and add to the wells. Wrapped the plates in aluminum foil and stored them at +4° C. over night.
as §1
Aspirated wells, and wash the flashed plates. Sealed the plate. Measured the remaining radioactivity in the plate.

Each structure is given as a SMILES string. pIC50: −log10 of the molar value. A value given as a limit tells only on which side of the number the result lay.

As usually defined, the pIC50 is the negative decadic logarithm of the IC50, by convention in mol/L. A high value points to a small IC50.

`CCc1nc2c(C(F)(F)F)cccc2n1-c1ccc(OCc2cccc(S(C)(=O)=O)c2)cc1` [Example 85, 2-ethyl-1-(4-{[3-(methylsulfonyl)benzyl]oxy}phenyl)-4-(trifluoromethyl)-1H-benzimidazole]: the pIC50 is 5.72 in assay [1] and 5.29 in assay [2].
For `CS(=O)(=O)c1cccc(COc2ccc(-n3c(C(F)(F)F)nc4c(C(F)(F)F)cccc43)cc2)c1` [Example 86, 1-(4-{[3-(methylsulfonyl)benzyl]oxy}phenyl)-2,4-bis(trifluoromethyl)-1H-benzimidazole], in that order: under 6.00 and under 6.00.
For `Cc1nc2c(C(F)(F)F)cccc2n1-c1ccc(OCc2cccc(S(C)(=O)=O)c2)cc1` [Example 87, 2-methyl-1(4-{[3-(methylsulfonyl)benzyl]oxy}phenyl)-4-(trifluoromethyl)-1H-benzimidazole], in that order: under 6.00 and under 6.00.
For the compound `CCc1nc2c(C(F)(F)F)cccc2n1-c1ccc(Oc2ccc(C#N)c(S(C)(=O)=O)c2)cc1` [Example 88, 4-{4-[2-ethyl-4-(trifluoromethyl)-1H-benzimidazol-1-yl]phenoxy}-2-(methylsulfonyl)benzonitrile], the figures for the pIC50 in assay [1] and in assay [2] were 5.72 and 4.82, respectively.
For `Cc1cc(Oc2cccc(S(C)(=O)=O)c2)ccc1-n1cnc2c(C(F)(F)F)cccc21` [Example 90, 1-{2-methyl-4-[3-(methylsulfonyl)phenoxy]phenyl}-4-(trifluoromethyl)-1H-benzimidazole], in that order: 6.10 and 5.19.
For `CCS(=O)(=O)c1cccc(Oc2ccc(-n3cnc4c(C(F)(F)F)cccc43)c(C)c2)c1` [Example 91, 1-{4-[3-(ethylsulfonyl)phenoxy]-2-methylphenyl}-4-(trifluoromethyl)-1H-benzimidazole], in that order: 6.20 and 5.21.
For `Cc1cc(Oc2cccc(S(=O)(=O)C(C)C)c2)ccc1-n1cnc2c(C(F)(F)F)cccc21` [Example 92, 1-(2-methyl-4-{3-[(1-methylethyl)sulfonyl]phenoxy}phenyl)-4-(trifluoromethyl)-1H-benzimidazole], in that order: 6.46 and 5.49.
Consider `Cc1cc(Oc2cccc(S(C)(=O)=O)c2)ccc1-n1c(C)nc2c(C(F)(F)F)cccc21` [Example 93, 2-methyl-1-{2-methyl-4-[3-(methylsulfonyl)phenoxy]phenyl}-4-(trifluoromethyl)-1H-benzimidazole], for which the pIC50 was 6.72 in assay [1] and 5.56 in assay [2].
For `CCS(=O)(=O)c1cccc(Oc2ccc(-n3c(C)nc4c(C(F)(F)F)cccc43)c(C)c2)c1` [Example 94], in that order: 6.91 and 5.68.
Take `Cc1cc(Oc2cc(F)cc(S(C)(=O)=O)c2)ccc1-n1cnc2c(C(F)(F)F)cccc21` [Example 96, 1-{4-[3-fluoro-5-(methylsulfonyl)phenoxy]-2-methylphenyl}-4-(trifluoromethyl)-1H-benzimidazole]: the pIC50 in assay [1] was 5.58; in assay [2], 4.80.
As to `CCS(=O)(=O)c1cc(F)cc(Oc2ccc(-n3cnc4c(C(F)(F)F)cccc43)c(C)c2)c1` [Example 97, 1-{4-[3-(ethylsulfonyl)-5-fluorophenoxy]-2-methylphenyl}-4-(trifluoromethyl)-1H-benzimidazole], the pIC50 in assay [1] is 5.95; in assay [2], 5.10.
With `Cc1cc(Oc2ccc(S(C)(=O)=O)cc2)ccc1-n1cnc2c(C(F)(F)F)cccc21` [Example 98, 1-{2-methyl-4-[4-(methylsulfonyl)phenoxy]phenyl}-4-(trifluoromethyl)-1H-benzimidazole], the values for the pIC50 in assay [1] and in assay [2] were 6.24 and 5.28, respectively.
As for `CCS(=O)(=O)c1cc(F)cc(Oc2ccc(-n3c(C)nc4c(C(F)(F)F)cccc43)c(C)c2)c1` [Example 99], the results for the pIC50 in assay [1] and in assay [2] were 6.52 and 5.43, respectively.
For `Cc1cc(Oc2ccc(S(C)(=O)=O)cc2)ccc1-n1c(C)nc2c(C(F)(F)F)cccc21` [Example 100, 2-methyl-1-{2-methyl-4-[4-(methylsulfonyl)phenoxy]phenyl}-4-(trifluoromethyl)-1H-benzimidazole], in that order: 5.88 and 4.92.
Taken in the same sequence, the figures for `Cc1cc(Oc2cc(F)cc(S(C)(=O)=O)c2)ccc1-n1c(C)nc2c(C(F)(F)F)cccc21` [Example 101, 1-{4-[3-fluoro-5-(methylsulfonyl)phenoxy]-2-methylphenyl}-2-methyl-4-(trifluoromethyl)-1H-benzimidazole] were 6.39 and 5.32.
Regarding `Cc1nc2c(C(F)(F)F)cccc2n1-c1ccc(Oc2cccc(S(C)(=O)=O)c2)cc1Cl` [Example 102, 1-{2-chloro-4-[3-(methylsulfonyl)phenoxy]phenyl}-2-methyl-4-(trifluoromethyl)-1H-benzimidazole], the pIC50 in assay [1] was 6.52; in assay [2], 5.71.
Taken in the same sequence, the figures for `Cc1nc2c(C(F)(F)F)cccc2n1-c1ccc(Oc2cc(F)cc(S(C)(=O)=O)c2)cc1Cl` [Example 103, 1-{2-chloro-4-[3-fluoro-5-(methylsulfonyl)phenoxy]phenyl}-2-methyl-4-(trifluoromethyl)-1H-benzimidazole] were 6.63 and 5.57.
As to `CS(=O)(=O)c1cccc(Oc2ccc(-n3cnc4c(C(F)(F)F)cccc43)c(Cl)c2)c1` [Example 104, 1-{2-chloro-4-[3-(methylsulfonyl)phenoxy]phenyl}-4-(trifluoromethyl)-1H-benzimidazole], the values for the pIC50 in assay [1] and in assay [2] were 6.32 and 5.59, respectively.
As for `CCS(=O)(=O)c1cccc(Oc2ccc(-n3cnc4c(C(F)(F)F)cccc43)c(Cl)c2)c1` [Example 105, 1-{2-chloro-4-[3-(ethylsulfonyl)phenoxy]phenyl}-4-(trifluoromethyl)-1H-benzimidazole], the pIC50 in assay [1] was 6.45; in assay [2], 5.57.
For `CS(=O)(=O)c1cc(F)cc(Oc2ccc(-n3cnc4c(C(F)(F)F)cccc43)c(Cl)c2)c1` [Example 106, 1-{2-chloro-4-[3-fluoro-5-(methylsulfonyl)phenoxy]phenyl}-4-(trifluoromethyl)-1H-benzimidazole], in that order: 5.91 and 5.40.

Source of the values: patent US20110034526A1, “Benzimidazole Compounds” (Wyeth LLC, priority 2007, published 2011).
